Reference: PubChem BioAssay (NCI)
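The compound was tested at five concentrations on cells cultured in 96-well plates, with a 48-hour exposure period. The concentration for 50% growth inhibition is given as GI50. At the TGI there is no net growth.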

Assays:
Experiment in all cases: inhibition of tumour cell growth, NCI panel, 48 h
K-562 leukemia = tested on: K-562 leukemia
SNB-19 CNS = tested on: SNB-19 CNS
IGROV1 ovarian = tested on: IGROV1 ovarian
HT29 colon = tested on: HT29 colon
COLO 205 colon = tested on: COLO 205 colon
SN12C renal = tested on: SN12C renal
SF-268 CNS = tested on: SF-268 CNS
BT-549 breast = tested on: BT-549 breast
MDA-MB-435 = tested on: MDA-MB-435
CAKI-1 renal = tested on: CAKI-1 renal
HOP-62 NSCLC = tested on: HOP-62 NSCLC
UACC-257 melanoma = tested on: UACC-257 melanoma
HS 578T breast = tested on: HS 578T breast
HL-60(TB) leukemia = tested on: HL-60(TB) leukemia
HCT-15 colon = tested on: HCT-15 colon
SNB-75 CNS = tested on: SNB-75 CNS
SK-OV-3 ovarian = tested on: SK-OV-3 ovarian
786-0 renal = tested on: 786-0 renal
SK-MEL-2 melanoma = tested on: SK-MEL-2 melanoma
SK-MEL-28 melanoma = tested on: SK-MEL-28 melanoma
M14 melanoma = tested on: M14 melanoma
ACHN renal = tested on: ACHN renal
MDA-MB-468 breast = tested on: MDA-MB-468 breast
MOLT-4 leukemia = tested on: MOLT-4 leukemia
TK-10 renal = tested on: TK-10 renal
A549 NSCLC = tested on: A549 NSCLC
MDA-MB-231 breast = tested on: MDA-MB-231 breast
MCF7 breast = tested on: MCF7 breast
SF-539 CNS = tested on: SF-539 CNS
UACC-62 melanoma = tested on: UACC-62 melanoma
OVCAR-3 ovarian = tested on: OVCAR-3 ovarian
NCI-H226 lung = tested on: NCI-H226 lung
CCRF-CEM leukemia = tested on: CCRF-CEM leukemia
A498 renal = tested on: A498 renal
U251 CNS = tested on: U251 CNS
SW-620 colon = tested on: SW-620 colon
NCI/ADR-RES ovarian = tested on: NCI/ADR-RES ovarian
SK-MEL-5 melanoma = tested on: SK-MEL-5 melanoma
HCT-116 colon = tested on: HCT-116 colon
T-47D breast = tested on: T-47D breast
KM12 colon = tested on: KM12 colon
NCI-H522 lung = tested on: NCI-H522 lung
RXF 393 renal = tested on: RXF 393 renal
OVCAR-4 ovarian = tested on: OVCAR-4 ovarian
UO-31 renal = tested on: UO-31 renal
OVCAR-8 ovarian = tested on: OVCAR-8 ovarian
MALME-3M melanoma = tested on: MALME-3M melanoma
OVCAR-5 ovarian = tested on: OVCAR-5 ovarian
NCI-H460 lung = tested on: NCI-H460 lung
DU-145 prostate = tested on: DU-145 prostate
SF-295 CNS = tested on: SF-295 CNS
LOX IMVI melanoma = tested on: LOX IMVI melanoma
NCI-H23 lung = tested on: NCI-H23 lung
EKVX NSCLC = tested on: EKVX NSCLC
HOP-92 NSCLC = tested on: HOP-92 NSCLC
HCC-2998 colon = tested on: HCC-2998 colon

In the case of `CCn1c(SCC(=O)Nc2ccc(-c3nc4ccccc4[nH]3)cc2)nc2ccccc2c1=O`, the GI50 (K-562 leukemia) is reported as 2910 nM, the TGI (K-562 leukemia) is reported as > 100 µM and the GI50 (SNB-19 CNS) is reported as 1750 nM. For the same compound, the TGI (SNB-19 CNS) was 3.31 µM, the GI50 (IGROV1 ovarian) was 1690 nM and the TGI (IGROV1 ovarian) was 3.33 µM. The GI50 (HT29 colon) was 1990 nM, the TGI (HT29 colon) was 4.26 µM and the GI50 (COLO 205 colon) was 2300 nM. For the same compound, the TGI (COLO 205 colon) was 4.27 µM, the GI50 (SN12C renal) was 1470 nM and the TGI (SN12C renal) was 2820 nM. For the same compound, the GI50 (SF-268 CNS) was 2060 nM, the TGI (SF-268 CNS) was 4.56 µM and the GI50 (BT-549 breast) was 1500 nM. For the same compound, the TGI (BT-549 breast) was 2860 nM, the GI50 (MDA-MB-435) was 1730 nM and the TGI (MDA-MB-435) was 3.11 µM. For the same compound, the GI50 (CAKI-1 renal) was 1780 nM, the TGI (CAKI-1 renal) was 3.29 µM and the GI50 (HOP-62 NSCLC) was 1700 nM. The TGI (HOP-62 NSCLC) was 3.18 µM, the GI50 (UACC-257 melanoma) was 1790 nM and the TGI (UACC-257 melanoma) was 3.45 µM. It also gave a GI50 (HS 578T breast) of 2060 nM, a TGI (HS 578T breast) of 4.66 µM and a GI50 (HL-60(TB) leukemia) of 2460 nM. For the same compound, the TGI (HL-60(TB) leukemia) was 6.02 µM, the GI50 (HCT-15 colon) was 1720 nM and the TGI (HCT-15 colon) was 3.3 µM. For the same compound, the GI50 (SNB-75 CNS) was 1290 nM, the TGI (SNB-75 CNS) was 2610 nM and the GI50 (SK-OV-3 ovarian) was 1930 nM. The TGI (SK-OV-3 ovarian) was 3.92 µM, the GI50 (786-0 renal) was 1650 nM and the TGI (786-0 renal) was 3.02 µM. The GI50 (SK-MEL-2 melanoma) was 1910 nM, the TGI (SK-MEL-2 melanoma) was 3.95 µM and the GI50 (SK-MEL-28 melanoma) was 1680 nM. It also gave a TGI (SK-MEL-28 melanoma) of 3.05 µM, a GI50 (M14 melanoma) of 1700 nM and a TGI (M14 melanoma) of 3.15 µM. It also gave a GI50 (ACHN renal) of 1700 nM, a TGI (ACHN renal) of 3.07 µM and a GI50 (MDA-MB-468 breast) of 1560 nM. For the same compound, the TGI (MDA-MB-468 breast) was 3.04 µM, the GI50 (MOLT-4 leukemia) was 4.21 µM and the TGI (MOLT-4 leukemia) was > 100 µM. For the same compound, the GI50 (TK-10 renal) was 1800 nM, the TGI (TK-10 renal) was 3.26 µM and the GI50 (A549 NSCLC) was 1740 nM. The TGI (A549 NSCLC) was 3.59 µM, the GI50 (MDA-MB-231 breast) was 1820 nM and the TGI (MDA-MB-231 breast) was 3.35 µM. The GI50 (MCF7 breast) was 1550 nM, the TGI (MCF7 breast) was 3 µM and the GI50 (SF-539 CNS) was 1760 nM. The TGI (SF-539 CNS) was 3.15 µM, the GI50 (UACC-62 melanoma) was 1560 nM and the TGI (UACC-62 melanoma) was 2930 nM. It also gave a GI50 (OVCAR-3 ovarian) of 1780 nM, a TGI (OVCAR-3 ovarian) of 3.28 µM and a GI50 (NCI-H226 lung) of 1670 nM. For the same compound, the TGI (NCI-H226 lung) was 3.6 µM, the GI50 (CCRF-CEM leukemia) was 25 µM and the TGI (CCRF-CEM leukemia) was > 100 µM. For the same compound, the GI50 (A498 renal) was 1610 nM, the TGI (A498 renal) was 3.18 µM and the GI50 (U251 CNS) was 1750 nM. For the same compound, the TGI (U251 CNS) was 3.39 µM, the GI50 (SW-620 colon) was 1870 nM and the TGI (SW-620 colon) was 3.5 µM. For the same compound, the GI50 (NCI/ADR-RES ovarian) was 1820 nM, the TGI (NCI/ADR-RES ovarian) was 3.65 µM and the GI50 (SK-MEL-5 melanoma) was 1780 nM. It also gave a TGI (SK-MEL-5 melanoma) of 3.33 µM, a GI50 (HCT-116 colon) of 1750 nM and a TGI (HCT-116 colon) of 3.13 µM. The GI50 (T-47D breast) was 1710 nM, the TGI (T-47D breast) was 3.49 µM and the GI50 (KM12 colon) was 2500 nM. The TGI (KM12 colon) was 6.49 µM, the GI50 (NCI-H522 lung) was 1770 nM and the TGI (NCI-H522 lung) was 3.51 µM. The GI50 (RXF 393 renal) was 1710 nM, the TGI (RXF 393 renal) was 3.19 µM and the GI50 (OVCAR-4 ovarian) was 1750 nM. It also gave a TGI (OVCAR-4 ovarian) of 3.2 µM, a GI50 (UO-31 renal) of 1530 nM and a TGI (UO-31 renal) of 2880 nM. The GI50 (OVCAR-8 ovarian) was 2090 nM, the TGI (OVCAR-8 ovarian) was 4.6 µM and the GI50 (MALME-3M melanoma) was 1640 nM. For the same compound, the TGI (MALME-3M melanoma) was 3.02 µM, the GI50 (OVCAR-5 ovarian) was 1480 nM and the TGI (OVCAR-5 ovarian) was 2980 nM. The GI50 (NCI-H460 lung) was 1770 nM, the TGI (NCI-H460 lung) was 3.29 µM and the GI50 (DU-145 prostate) was 2020 nM. It also gave a TGI (DU-145 prostate) of 3.99 µM, a GI50 (SF-295 CNS) of 1670 nM and a TGI (SF-295 CNS) of 3.09 µM. It also gave a GI50 (LOX IMVI melanoma) of 1700 nM, a TGI (LOX IMVI melanoma) of 3.1 µM and a GI50 (NCI-H23 lung) of 2040 nM. It also gave a TGI (NCI-H23 lung) of 4.73 µM, a GI50 (EKVX NSCLC) of 1840 nM and a TGI (EKVX NSCLC) of 3.9 µM. For the same compound, the GI50 (HOP-92 NSCLC) was 1660 nM, the TGI (HOP-92 NSCLC) was 4.05 µM and the GI50 (HCC-2998 colon) was 2040 nM. It also gave a TGI (HCC-2998 colon) of 4.89 µM.
